Results reported in patent US7947466B2 (priority 2003, dated 2011).
“Also recorded” adds a separate entry of the source. Where two headings read alike, the source gives them in different places.

B1: α-Cobratoxin: α-neurotoxin, peptide toxin from elapid venom (protein)
chain: IRCFITPDITSKDCPNGHVCYTKTWCDAFCSIRGKRVDLGCAATCPTVKTGVDIQCCSTDNCNPFPTRKRP

How the values were obtained:
Lymnaea AChBP [1] = target: T1, Lymnaea AChBP (Lymnaea stagnalis, UniProt P58154); assay: biochemical; format: binding
Lymnaea AChBP [2] = target: T1, Lymnaea AChBP; settings: read-out: Lymnaea Kd; cited from earlier work
Target sequence in this assay (P58154 20-229 limits assumed): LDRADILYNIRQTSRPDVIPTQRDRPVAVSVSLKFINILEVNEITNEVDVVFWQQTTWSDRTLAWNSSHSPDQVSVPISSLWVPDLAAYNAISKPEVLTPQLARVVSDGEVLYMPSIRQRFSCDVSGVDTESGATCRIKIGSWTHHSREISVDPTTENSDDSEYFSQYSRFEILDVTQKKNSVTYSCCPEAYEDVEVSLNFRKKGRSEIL

Aplysia AChBP [3] = target: T2, Aplysia AChBP (Aplysia californica, UniProt Q8WSF8); assay: biochemical; format: binding
Aplysia AChBP [4] = target: T2, Aplysia AChBP; assay: biochemical; format: binding; remark: listed apart in the source
Lymnaea AChBP [5] = target: T1, Lymnaea AChBP; assay: biochemical; format: binding; remark: listed apart in the source
Target sequence in this assay (P58154 20-229 limits assumed): as above

Lymnaea AChBP [6] = target: T1, Lymnaea AChBP; format: binding
Target sequence in this assay (P58154 20-229 limits assumed): as above

T2 sequence (Q8WSF8 18-236): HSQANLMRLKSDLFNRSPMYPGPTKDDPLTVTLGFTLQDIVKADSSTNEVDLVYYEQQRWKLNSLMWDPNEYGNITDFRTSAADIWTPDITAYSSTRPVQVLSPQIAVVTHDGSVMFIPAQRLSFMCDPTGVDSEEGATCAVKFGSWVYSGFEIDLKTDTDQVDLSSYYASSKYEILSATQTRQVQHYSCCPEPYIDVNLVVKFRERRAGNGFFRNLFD

Row | Molecule | k1 (Lymnaea AChBP [1]) | k−1 (Lymnaea AChBP [1]) [s⁻¹] | Kd (Lymnaea AChBP [1]; read-out: Kd) [nM] | Kd Ratio L/A (Aplysia AChBP [4]) | Kd (Aplysia AChBP [3]) [nM] | change of tryptophan fluorescence on binding, A-AChBP (Aplysia AChBP [3]) | k1 Aplysia (Aplysia AChBP [4]) [M⁻¹ s⁻¹] | k−1 Aplysia (Aplysia AChBP [4]) [s⁻¹] | k1 Lymnaea (Lymnaea AChBP [1]) [M⁻¹ s⁻¹] | k−1 Lymnaea (Lymnaea AChBP [1]) [s⁻¹] | Kd (Lymnaea AChBP [1]) [nM] | further results
1 | 5-Dimethylaminonaphthylsulfonamidoethyltrimethylammonium [Dansyl-C2-choline] | 2.1e+08 M⁻¹ s⁻¹ | 2.9 | 14 | – | – | – | – | – | – | – | – | –
2 | 5-Dimethylaminonaphthylsulfonamidohexyltrimethylammonium [Dansyl-C6-choline] | 1.3e+08 M⁻¹ s⁻¹ | 7.6 | 58 | 0.069 | – | – | – | – | – | – | – | Kd (Lymnaea AChBP [2]): 110 nM; Kd (Aplysia AChBP [3]; read-out: Aplysia Kd): 1600 nM
3 | CN1CCCC1c1cccnc1 (single isomer, unassigned; (-)) [(−)-Nicotine] | 1.5e+08 M⁻¹ s⁻¹ | 5.7 | – | – | 245 | markedly quenched fluorescence | 2.3e+08 | 49 | 1.5e+08 | 5.7 | – | change of tryptophan fluorescence on binding, L-AChBP (Lymnaea AChBP [5]): markedly quenched fluorescence
4 | CC(=O)OCC[N+](C)(C)C [Acetylcholine] | – | – | – | – | 33000 | – | – | – | – | – | – | –
5 | C[N+](C)(C)CCOC(N)=O [Carbachol] | – | – | – | 0.023 | 240000 | enhanced fluorescence emission | – | – | – | – | – | Kd (Lymnaea AChBP [5]): 5600 nM
6 | C[N+](C)(C)CCCCCCCCCC[N+](C)(C)C [Decamethonium] | 3.2 ± 0.17 ×10^8 M^−1 s^−1 | 120 ± 17 | – | – | – | – | – | – | – | – | 380 | –
7 | Clc1ccc(C2CC3CCC2N3)cn1 (stereo not shown) [Epibatidine] | 1.7 ± 0.26 ×10^8 M^−1 s^−1 | 0.027 ± 0.037 | – | 0.011 | – | markedly quenched fluorescence | 2.5e+08 | 3.4 | 1.7e+08 | 0.027 | 0.16 | change of tryptophan fluorescence on binding, L-AChBP (Lymnaea AChBP [5]): markedly quenched fluorescence; quenching of the intrinsic tryptophan fluorescence (Lymnaea AChBP [6]): about 50%; Kd (Aplysia AChBP [4]): 14 nM
8 | CC[N+](CC)(CC)CCOc1cccc(OCC[N+](CC)(CC)CC)c1OCC[N+](CC)(CC)CC [Gallamine] | 2.5 ± 0.14 ×10^8 M^−1 s^−1 | 36 ± 6.5 | – | 1.2 | 120 | enhanced fluorescence emission | 2.5e+08 | 65 | 2.5e+08 | 36 | 140 | change of tryptophan fluorescence on binding, L-AChBP (Lymnaea AChBP [5]): enhanced tryptophan fluorescence; change of tryptophan fluorescence on binding, Lymnaea AChBP (Example 1) (Lymnaea AChBP [1]): enhancement of the tryptophan fluorescence; also recorded: increase in fluorescence
9 | CCN1C[C@]2(COC(=O)c3ccccc3N3C(=O)C[C@H](C)C3=O)CC[C@H](OC)[C@@]34[C@@H]5C[C@H]6[C@H](OC)[C@@H]5[C@](O)(C[C@@H]6OC)[C@@](O)([C@@H](OC)[C@H]23)[C@@H]14 [Methyllycaconitine] | – | – | – | 0.14 | – | – | 4.4e+07 | 0.12 | 1.3e+07 | 0.005 | – | Kd (Lymnaea AChBP [2]): 0.41 nM; Kd (Aplysia AChBP [4]): 2.8 nM
10 | O=C1C[C@@H]2OCC=C3CN4CC[C@]56c7ccccc7N1[C@H]5[C@H]2[C@H]3C[C@H]46 [Strychnine] | – | – | – | – | – | – | – | – | – | – | 23 | Kd (Aplysia AChBP [4]): 15 nM
11 | COc1cc2c3cc1Oc1cc(ccc1O)C[C@@H]1c4c(cc(OC)c(O)c4Oc4ccc(cc4)C[C@@H]3N(C)CC2)CC[N+]1(C)C [d-Tubocurarine] | 2e+08 M⁻¹ s⁻¹ | 30 | 150 | – | – | – | – | – | – | – | – | –
12 | α-Bungarotoxin | 0.0097 ± 0.002 ×10^8 M^−1 s^−1 | 0.0017 ± 0.0003 | 1.8 | 0.0071 | – | – | 1e+06 | 0.32 | 900000 | 0.001 | – | Kd (Lymnaea AChBP [2]): 1.8 nM; lower affinity for A-AChBP than for L-AChBP (Aplysia AChBP [3]): 100 fold; Kd (Aplysia AChBP [3]; read-out: Aplysia Kd): 250 nM; quenching of the intrinsic tryptophan fluorescence (Lymnaea AChBP [6]): 15-20%; rate of association slower than for epibatidine (Lymnaea AChBP [1]): ~200 fold; unimolecular step k2 (slow phase limiting value) (Lymnaea AChBP [1]): 0.34 s⁻¹
13 | B1 | 3.3e+06 M⁻¹ s⁻¹ | 0.011 | 3.2 | – | – | – | – | – | – | – | – | –
